Experimental data reported in PMC10610214 (Pharmaceuticals, 2023).

Assays:
[1] = target: T1, BuChE (from equine serum) (Equus caballus, UniProt P81908); test: biochemical; details: mean ± SD of three experiments, read-out: BuChE Inhibition (IC50)
T1 construct: BuChE (from equine serum); purchased Sigma Chemical Company (St. Louis, MO, USA); host or cells: equine serum
Method: (§1) The ChE inhibitory activity of the test compounds was determined using the modified Ellman’s method. The compounds were dissolved in DMSO (10 mmol/L) and then diluted with PB (phosphate buffer) solution to attain a range of final concentrations. […] Briefly, 100 μL of different concentrations of the test or standard compounds and 100 μL of AChE/BuChE (0.5 U/mL) were added into 48-well plates and then co-incubated at 37 °C for 30 min. […] All concentrations mentioned are final.

AChE (from electric eel) = target: T2, AChE (from electric eel) (Electrophorus electricus, UniProt O42275); test: biochemical; details: AChE from electric eel; mean ± SD of three experiments; read-out: AChE Inhibition (IC50)
T2 construct: AChE (from electric eel); purchased Sigma Chemical Company (St. Louis, MO, USA)
Method: as §1

H2O2-induced PC12 cells = test: Neuroprotection against H2O2-induced PC12 cell injury (MTT); assay type: cell-based; details: H2O2 250 μM, mean ± SEM
Method: Neuroprotection assay is similar to cytotoxicity. Oxidative cellular damage caused by H2O2 has become one of the important methods to study oxidative damage in neural cells. PC12 cells were seeded into a 96-well plate at a density of 5.0 × 10^3 cells per well. After the cells were incubated overnight, the old medium was discarded. […] After incubating overnight, 20 μL of MTT solution (5 mg/mL, Sigma-Aldrich) was added per well, and the cells were incubated for an additional 4 h. Afterwards, the supernatant was removed and 150 μL of DMSO was added. The 96-well plate was placed on the shaker for 10–15 min, and then the absorbance at 492 nm was measured by a microplate reader.

PC12 cells = test: Cytotoxicity in PC12 cells (MTT); assay type: cell-based
Method: The cytotoxicity and neuroprotective effects of the compounds on PC12 cells were evaluated by MTT assay. PC12 cells were seeded into a 96-well plate at a density of 5.0 × 10^3 cells per well. After the cells were incubated overnight, the old medium was discarded. The cells were incubated for another 24 h with fresh medium containing compounds at a concentration of 30 or 50 μM. A total of 20 μL of MTT solution (5 mg/mL, Sigma-Aldrich, Shanghai, China) was then added per well, and the cells were incubated for an additional 4 h. Afterwards, the supernatant was removed and 150 μL of DMSO was added to solubilize formazan crystals. The 96-well plate was placed on the shaker for 10–15 min, and then the absorbance at 492 nm was measured by a microplate reader.

[2] = test system: adjuvant-induced arthritis (AIA) rats; parameters: method as in PMID 36450214; details: cited from earlier work
DPPH radical scavenging = assay type: physicochemical; details: vs no-compound group
Method: DPPH is a commercially available stable organic nitrogen radical with maximum UV absorption at 515 nm. After reduction, the color of the solution fades (absorbance decreases). Therefore, this method was used to evaluate the antioxidant capacity of the compounds. In short, 50 μL of DPPH (140 μM) and 50 μL of different concentrations (10, 100, and 1000 μM) of compound 4h were added together in a 96-well plate and then incubated in the dark at 37 °C for 2 h. The absorbance was measured at 515 nm through the multifunctional microplate reader. The scavenging rate (SR) of DPPH radicals was calculated by the following formula: SR = (1 − Ac/A0) × 100%, where “Ac” is the absorbance of DPPH and the compound solution incubating, and “A0” is the absorbance of the DPPH radical-ethanol solution alone. The experimental results are expressed as the average of three tests.

Aβ1-42 = Aβ1-42 (Homo sapiens, UniProt P05067); test: Self-induced Aβ1-42 aggregation, thioflavin T fluorescence; assay type: biochemical; parameters: final concentrations of 20 μM of Aβ1-42 and 100 μM of test compound; purchased Beyotime Institute of Biotechnology; details: read-out: Inhibition of Self-Induced Aβ Aggregation (%)
Method: The inhibitory effect of compounds on Aβ42 was determined by Thioflavin T (ThT) fluorescence assay. In short, the dilution of Aβ42 solution (Beyotime Biotechnology, Hang Zhou, China) and test compounds was carried out with phosphate buffer (50 mM, pH 7.4) to obtain final concentrations of 20 μM of Aβ1-42 and 100 μM of test compound, such as curcumin (20 μM). The mixture was incubated in 96-well plates at room temperature for 48 h in the dark. When the incubation was complete, the samples were diluted to 200 µL (final volume) with glycine–NaOH buffer (50 mM, pH 8.0) containing 5 μM ThT.

BuChE = target: T3, BuChE (Equus caballus, UniProt P81908); test: Reversibility of BuChE inhibition, dilution method; assay type: biochemical; details: control 100
T3 construct: BuChE (from equine serum); purchased Sigma Chemical Company (St. Louis, MO, USA); host or cells: equine serum
Method: The activities of the diluted residual enzymes were measured by Ellman’s modified method.
Reversibility studies were performed using a modified Ellman’s dilution method to measure the activity of the diluted residual enzyme. The AChE/BuChE (0.5 U/mL), ATCI/BTCI (0.01 M) and DTNB (0.01 M) were diluted with phosphate buffer pH = 7.4. […] At the end of incubation, 20 μL of DTNB solution was added to them. […] All the measured results are expressed as the mean ± SEM of the three independent experiments.

in vitro = in vitro ADME, SD rats; details: SD rat liver microsomes
Method: The incubation was terminated at different time points by adding 0.5 mL of ice-cold CH3CN. A parallel incubation was performed in the absence of a NADPH-regenerating system with microsomes as the negative control, and the reactions were terminated after the corresponding time incubation. After centrifugation with 12,500 rpm at 4 °C for 10 min, the supernatant was directly analyzed by the HPLC UV systems (Agilent HPLC 1200 instrument). Three independent experiments were performed in triplicate.

SY5Y cells = test: H2O2-induced intracellular ROS in SY5Y cells (DCFH-DA); assay type: cell-based; details: 100 μM, vs untreated control 100, H2O2 group 151.76
Method: A 2’, 7’-dichlorofluorescein diacetate (DCFH-DA, Sigma Aldrich) probe was applied to determine intracellular ROS production. It can penetrate cells and be rapidly oxidized by intracellular ROS to highly fluorescent 2′,7′-dichlorofluorescein (DCF). Intracellular fluorescence intensity is proportional to intracellular ROS levels. PC12 cells or SY5Y cells were seeded into a black 96-well plate at a density of 1.0 × 10^4 cells per well. After the cells were incubated overnight, the old medium was discarded. PC12 cells or SY5Y cells were cultured in a medium containing test compound 4h with or without various concentrations (1, 7.5, 15, 30, and 50 μM) for 6 h. […] Then, they were washed again with PBS, then DCFH-DA […] probe was added to each well and incubated at 37 °C for 1 h. After the cells were washed 3 times, the fluorescence intensity was measured in a Synergy HTX fluorescence microplate reader (λex = 485 nm, λem = 528 nm).

T2 sequence (O42275 24-633): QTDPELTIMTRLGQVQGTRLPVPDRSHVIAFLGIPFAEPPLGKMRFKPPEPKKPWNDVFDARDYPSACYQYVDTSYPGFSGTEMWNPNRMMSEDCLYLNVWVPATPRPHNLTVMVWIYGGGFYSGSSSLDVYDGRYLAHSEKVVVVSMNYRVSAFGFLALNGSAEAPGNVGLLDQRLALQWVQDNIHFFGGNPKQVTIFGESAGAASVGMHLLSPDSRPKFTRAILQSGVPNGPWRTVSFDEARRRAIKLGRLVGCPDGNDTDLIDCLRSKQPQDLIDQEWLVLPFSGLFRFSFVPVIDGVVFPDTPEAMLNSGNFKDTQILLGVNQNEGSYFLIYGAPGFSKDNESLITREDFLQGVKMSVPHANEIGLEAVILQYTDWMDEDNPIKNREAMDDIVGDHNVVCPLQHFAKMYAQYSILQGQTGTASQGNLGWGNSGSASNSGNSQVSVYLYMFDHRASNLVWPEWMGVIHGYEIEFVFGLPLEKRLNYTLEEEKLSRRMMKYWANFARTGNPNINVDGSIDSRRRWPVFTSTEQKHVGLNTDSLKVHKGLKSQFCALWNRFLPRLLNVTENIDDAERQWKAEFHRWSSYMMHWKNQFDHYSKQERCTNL
T1 sequence (P81908 whole entry): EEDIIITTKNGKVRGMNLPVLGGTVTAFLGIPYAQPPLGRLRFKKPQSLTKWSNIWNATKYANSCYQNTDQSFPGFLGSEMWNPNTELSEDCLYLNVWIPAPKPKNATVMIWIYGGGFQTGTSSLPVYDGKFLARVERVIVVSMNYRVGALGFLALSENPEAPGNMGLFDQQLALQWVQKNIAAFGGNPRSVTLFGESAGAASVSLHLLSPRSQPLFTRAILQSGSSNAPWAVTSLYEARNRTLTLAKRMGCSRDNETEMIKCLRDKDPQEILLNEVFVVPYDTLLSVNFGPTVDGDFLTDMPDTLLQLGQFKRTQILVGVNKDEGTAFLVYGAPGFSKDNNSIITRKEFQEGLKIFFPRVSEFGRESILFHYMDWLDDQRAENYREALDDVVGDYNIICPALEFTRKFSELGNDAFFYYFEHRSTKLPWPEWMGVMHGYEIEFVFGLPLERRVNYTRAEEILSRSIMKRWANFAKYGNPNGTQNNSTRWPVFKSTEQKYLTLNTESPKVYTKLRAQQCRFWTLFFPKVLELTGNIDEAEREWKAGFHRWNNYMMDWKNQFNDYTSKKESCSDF
Aβ1-42, sequence (P05067 672-713 limits assumed): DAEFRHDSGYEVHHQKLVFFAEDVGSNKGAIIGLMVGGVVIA
T3 sequence (P81908 whole entry): as the sequence (P81908 whole entry) above

Compound	IC50 [1] [µM]	IC50 (AChE (from electric eel)) [µM]	H2O2-Induced PC12 Cell Viability (% of Control) (H2O2-induced PC12 cells; compound 10 μM)	H2O2-Induced PC12 Cell Viability (% of Control) (H2O2-induced PC12 cells; compound 30 μM)	Cell Viability (% of Control) (PC12 cells; compound 30 μM)	Cell Viability (% of Control) (PC12 cells; compound 50 μM)	other results
O=C1c2ccccc2-n2c1nc1ccc(NS(=O)(=O)c3ccc(F)cc3)cc1c2=O [8f]	> 50	43 ± 1.12	34.24 ± 3.5 % of Control	42.25 ± 1.7 % of Control	99.4 ± 1.7 % of Control	98.3 ± 3.0 % of Control	
O=C1c2ccccc2-n2c1nc1ccc(NS(=O)(=O)c3cccc(F)c3)cc1c2=O [8g]	> 50	> 50	44.37 ± 0.5 % of Control	52.28 ± 2.3 % of Control	99.6 ± 1.2 % of Control	99.5 ± 2.7 % of Control	
O=C1c2ccccc2-n2c1nc1ccc(NS(=O)(=O)c3ccccc3F)cc1c2=O [8h]	> 50	> 50	36.03 ± 3.0 % of Control	46.73 ± 3.5 % of Control	99.4 ± 1.4 % of Control	98.3 ± 2.7 % of Control	
CC(=O)Nc1ccc(S(=O)(=O)Nc2ccc3nc4n(c(=O)c3c2)-c2ccccc2C4=O)cc1 [8i]	25.9 ± 2.38	> 50	48.46 ± 1.6 % of Control	59.63 ± 2.5 % of Control	99.8 ± 1.2 % of Control	99.4 ± 1.3 % of Control	
COc1ccc(S(=O)(=O)Nc2ccc3nc4n(c(=O)c3c2)-c2ccccc2C4=O)cc1 [8j]	10.2 ± 2.41	> 50	38.02 ± 3.1 % of Control	47.36 ± 6.1 % of Control	99.9 ± 1.5 % of Control	98.9 ± 2.1 % of Control	Anti-inflammatory activity in the AIA model [2]: exhibited good anti-inflammatory activity in the AIA model
COc1ccc(S(=O)(=O)Nc2ccc3nc4n(c(=O)c3c2)-c2ccccc2C4=O)cc1OC [8k]	> 50	> 50	44.37 ± 0.5 % of Control	52.28 ± 2.3 % of Control	99.6 ± 1.2 % of Control	99.5 ± 2.7 % of Control	
COc1ccc(S(=O)(=O)Nc2ccc3nc4n(c(=O)c3c2)-c2ccccc2C4=O)c(OC)c1 [8l]	> 50	> 50	34.61 ± 3.7 % of Control	38.1 ± 2.7 % of Control	99.4 ± 1.1 % of Control	98.7 ± 1.3 % of Control	
O=C1c2ccccc2-n2c1nc1ccc(NS(=O)(=O)c3ccc(OC(F)(F)F)cc3)cc1c2=O [8m]	> 50	> 50	44.67 ± 2.3 % of Control	53.92 ± 3.9 % of Control	99.5 ± 3.1 % of Control	98.2 ± 1.7 % of Control	
O=C1c2ccccc2-n2c1nc1ccc(NS(=O)(=O)c3ccccc3OC(F)(F)F)cc1c2=O [8n]	> 50	42 ± 1.7	38.94 ± 1.5 % of Control	49.96 ± 0.8 % of Control	99.2 ± 1.9 % of Control	98.3 ± 2.7 % of Control	
O=C1c2ccccc2-n2c1nc1ccc(NS(=O)(=O)c3ccccc3C(F)(F)F)cc1c2=O [8o]	> 50	8.86 ± 0.76	42.56 ± 2.1 % of Control	54.6 ± 3.8 % of Control	99.7 ± 2.4 % of Control	99.4 ± 1.1 % of Control	
O=C1c2ccccc2-n2c1nc1ccc(NS(=O)(=O)c3c(Cl)cccc3Cl)cc1c2=O [8p]	> 50	> 50	42.32 ± 0.7 % of Control	50.5 ± 0.5 % of Control	99.6 ± 2.7 % of Control	98.2 ± 1.7 % of Control	
O=C1O[C@H]([C@@H](O)CO)C(O)=C1O [AA, Ascorbic acid, reference compound]							Concentration of DPPH (%) (DPPH radical scavenging; 10 μM compound): 77.43 ± 2.76%; Concentration of DPPH (%) (DPPH radical scavenging; 100 μM compound): 58.10 ± 3.42%; Concentration of DPPH (%) (DPPH radical scavenging; 1000 μM compound): 24.2 ± 1.85%
COc1cc(/C=C/C(=O)CC(=O)/C=C/c2ccc(O)c(OC)c2)ccc1O [Curcumin]							inhibition at 20 µM (Aβ1-42; curcumin 20 μM (text b32), ThT, 48 h): 55.4 ± 2.31%
COc1cc2c(cc1OC)C(=O)C(CC1CCN(Cc3ccccc3)CC1)C2 (centres unmarked) [Donepezil, reference compound]							BuChE activity after dilution (reversibility) (BuChE; final inhibitor 0.1 × IC50 after 100-fold dilution): 94.1 ± 0.61; BuChE activity after dilution (reversibility) (BuChE; final inhibitor 1 × IC50 after 100-fold dilution): 89.4 ± 1.49; inhibition at 100 µM (Aβ1-42): 41.2 ± 1.87%
C[C@]12CC[C@H]3[C@@H](CCC4=CC(=O)CC[C@@]43C)[C@@H]1CC[C@@H]2O [Testosterone, reference compound]							K (in vitro): 0.2593 ± 0.04409 min⁻¹; T1/2 (in vitro): 2.4 ± 0.5 min
Cc1c(C)c2c(c(C)c1O)CCC(C)(C(=O)O)O2 (centres unmarked) [Trolox]							ROS in SY5Y cells (%) (SY5Y cells): 126.06 ± 2.68%
